Assay results from ChEMBL document CHEMBL1201862, “PubChem BioAssay data set” (2004).
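Protocol summary: plate cells (96-well), add compound at 5 concentrations, incubate 48 h, interpolate endpoints linearly. GI50 is the concentration that inhibits growth by half.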 The source made the active and inactive calls. Cut-off read from the data, not from the text of the source: active = GI50 up to about 1.1 µM and inactive = higher.

Key:
Experiment in all cases: NCI anticancer screen, dose series, 48 h
[1] = test system: 786-0
[2] = test system: A549
[3] = test system: ACHN
[4] = test system: BT-549
[5] = test system: CAKI-1
[6] = test system: CCRF-CEM
[7] = test system: COLO 205
[8] = test system: DU-145
[9] = test system: HCC 2998
[10] = test system: HCT-116
[11] = test system: HCT-15
[12] = test system: HL-60
[13] = test system: HOP-62
[14] = test system: HOP-92
[15] = test system: HT-29
[16] = test system: Hs-578T
[17] = test system: IGROV-1
[18] = test system: K562
[19] = test system: KM12
[20] = test system: LOX IMVI
[21] = test system: M14
[22] = test system: MCF7
[23] = test system: MDA-MB-231
[24] = test system: MDA-MB-435
[25] = test system: MDA-N
[26] = test system: MOLT-4
[27] = test system: Malme-3M
[28] = test system: NCI-H23
[29] = test system: NCI-H522
[30] = test system: NCI/ADR-RES
[31] = test system: OVCAR-3
[32] = test system: OVCAR-4
[33] = test system: OVCAR-5
[34] = test system: OVCAR-8
[35] = test system: PC-3
[36] = test system: RPMI-8226
[37] = test system: SF-268
[38] = test system: SF-295
[39] = test system: SF-539
[40] = test system: SK-MEL-28
[41] = test system: SK-MEL-5
[42] = test system: SK-OV-3
[43] = test system: SN12C
[44] = test system: SNB-19
[45] = test system: SNB-75
[46] = test system: SR
[47] = test system: SW-620
[48] = test system: T47D
[49] = test system: TK-10
[50] = test system: U-251
[51] = test system: UACC-257
[52] = test system: UACC-62
[53] = test system: EKVX
[54] = test system: NCI-H226
[55] = test system: NCI-H460
[56] = test system: RXF 393
[57] = test system: SK-MEL-2
[58] = test system: UO-31

COC(=O)C1=Nc2c(C)nn(-c3ccccc3)c2N=C(c2ccc([N+](=O)[O-])cc2)C1
GI50 [1]: > 10 µM (inactive)
GI50 [2]: > 10 µM (inactive)
GI50 [3]: > 10 µM (inactive)
GI50 [4]: > 10 µM (inactive)
GI50 [5]: > 10 µM (inactive)
GI50 [6]: > 10 µM (inactive)
GI50 [7]: > 10 µM (inactive)
GI50 [8]: > 10 µM (inactive)
GI50 [9]: > 10 µM (inactive)
GI50 [10]: > 10 µM (inactive)
GI50 [11]: > 10 µM
GI50 [12]: > 10 µM (inactive)
GI50 [13]: > 10 µM (inactive)
GI50 [14]: > 10 µM (inactive)
GI50 [15]: > 10 µM (inactive)
GI50 [16]: > 10 µM (inactive)
GI50 [17]: > 10 µM (inactive)
GI50 [18]: > 10 µM (inactive)
GI50 [19]: > 10 µM (inactive)
GI50 [20]: > 10 µM (inactive)
GI50 [21]: > 10 µM (inactive)
GI50 [22]: > 10 µM (inactive)
GI50 [23]: > 10 µM (inactive)
GI50 [24]: > 10 µM (inactive)
GI50 [25]: > 10 µM (inactive)
GI50 [26]: > 10 µM (inactive)
GI50 [27]: > 10 µM (inactive)
GI50 [28]: > 10 µM (inactive)
GI50 [29]: > 10 µM (inactive)
GI50 [30]: > 10 µM (inactive)
GI50 [31]: > 10 µM (inactive)
GI50 [32]: > 10 µM (inactive)
GI50 [33]: 5.98 µM (inactive)
GI50 [34]: > 10 µM (inactive)
GI50 [35]: > 10 µM (inactive)
GI50 [36]: > 10 µM (inactive)
GI50 [37]: > 10 µM (inactive)
GI50 [38]: > 10 µM (inactive)
GI50 [39]: > 10 µM (inactive)
GI50 [40]: > 10 µM (inactive)
GI50 [41]: > 10 µM (inactive)
GI50 [42]: > 10 µM (inactive)
GI50 [43]: > 10 µM (inactive)
GI50 [44]: > 10 µM (inactive)
GI50 [45]: > 10 µM (inactive)
GI50 [46]: > 10 µM (inactive)
GI50 [47]: > 10 µM (inactive)
GI50 [48]: > 10 µM (inactive)
GI50 [49]: > 10 µM (inactive)
GI50 [50]: > 10 µM (inactive)
GI50 [51]: > 10 µM (inactive)
GI50 [52]: > 10 µM (inactive)

CC(=O)Nc1ccc(S(=O)(=O)[N-]C2C(=O)c3ccccc3C(=O)C2[n+]2ccccc2)cc1 (stereo not given)
GI50 [1]: > 100 µM (inactive)
GI50 [2]: 19.5 µM (inactive)
GI50 [3]: 15.8 µM (inactive)
GI50 [4]: 3.02 µM (inactive)
GI50 [5]: > 100 µM (inactive)
GI50 [6]: 15.1 µM (inactive)
GI50 [7]: > 100 µM (inactive)
GI50 [8]: > 100 µM (inactive)
GI50 [53]: 31 µM (inactive)
GI50 [9]: 19.1 µM (inactive)
GI50 [10]: > 100 µM (inactive)
GI50 [11]: 28.3 µM
GI50 [12]: 13.8 µM (inactive)
GI50 [13]: 17.9 µM (inactive)
GI50 [14]: 17.4 µM (inactive)
GI50 [15]: 45.1 µM (inactive)
GI50 [16]: 23.1 µM (inactive)
GI50 [17]: 15 µM (inactive)
GI50 [18]: 23.3 µM (inactive)
GI50 [19]: 14.6 µM (inactive)
GI50 [20]: 63.4 µM (inactive)
GI50 [21]: 14.1 µM (inactive)
GI50 [22]: 16.8 µM (inactive)
GI50 [23]: 26.6 µM (inactive)
GI50 [24]: 4.09 µM (inactive)
GI50 [25]: 17.2 µM (inactive)
GI50 [26]: 17.6 µM (inactive)
GI50 [27]: 12.4 µM (inactive)
GI50 [54]: > 100 µM (inactive)
GI50 [28]: 7.64 µM (inactive)
GI50 [55]: 29.3 µM (inactive)
GI50 [29]: 19.2 µM (inactive)
GI50 [30]: 17.1 µM (inactive)
GI50 [31]: 16.4 µM (inactive)
GI50 [32]: 15.5 µM (inactive)
GI50 [33]: 17.7 µM (inactive)
GI50 [34]: 17.6 µM (inactive)
GI50 [35]: 17.1 µM (inactive)
GI50 [36]: 17.5 µM (inactive)
GI50 [56]: 16 µM (inactive)
GI50 [37]: 18.5 µM (inactive)
GI50 [38]: 15.4 µM (inactive)
GI50 [39]: 18.5 µM (inactive)
GI50 [40]: 16.5 µM (inactive)
GI50 [57]: 12.5 µM (inactive)
GI50 [41]: 3.87 µM (inactive)
GI50 [42]: 94.8 µM (inactive)
GI50 [43]: 99.3 µM (inactive)
GI50 [44]: 14.3 µM (inactive)
GI50 [45]: 16.1 µM (inactive)
GI50 [46]: 13.5 µM (inactive)
GI50 [47]: 17.1 µM (inactive)
GI50 [48]: 47.6 µM (inactive)
GI50 [49]: > 100 µM (inactive)
GI50 [50]: 14.3 µM (inactive)
GI50 [51]: 16.1 µM (inactive)
GI50 [52]: 14.8 µM (inactive)
GI50 [58]: 9.06 µM (inactive)
